Consider 3 molecules from ChEMBL document CHEMBL4765259, “Synthesis and biological evaluation of novel shikonin-benzo[b]furan derivatives as tubulin polymerization inhibitors targeting the colchicine binding site” (Eur J Med Chem, 2020).

Molecules are shown by their SMILES.

Series [1] deals with MCF7. Put plainly: cells. The following applies: Homo sapiens, MCF7, 48 h.
Description: Antiproliferative activity against drug-resistant human MCF7 cells incubated for 48 hrs by MTT assay
The species named for series [2] is Homo sapiens. Put plainly: Inhibition of [3H]colchicine binding to tubulin (unknown origin) at 4 uM incubated for 2 hrs by scintillation counting method relative to control.
Series [3] relates to HT-29. Put plainly: Antiproliferative activity against human HT29 cells incubated for 48 hrs by MTT assay. The series is classed as functional, cell-based. The following applies: HT-29, 48 h.
Series [4] can be described thus: Antiproliferative activity against human LO2 cells incubated for 48 hrs by MTT assay. The format is cell-based, L02.
The subject of series [5] is MCF7. Put plainly: cells. The settings on record: Homo sapiens, MCF7, 48 h. This is another data set of the same source.
Series [6] deals with K562. Put plainly: cells. The settings on record: Homo sapiens, K562, 48 h.
Description: Antiproliferative activity against human K562 cells incubated for 48 hrs by MTT assay
The next series concerns A549. The series is described as follows: cells. The settings on record: Homo sapiens, A549, 48 h.
For a further series, the system named is HepG2. Put plainly: Antiproliferative activity against human HepG2 cells incubated for 48 hrs by MTT assay. The series is classed as functional, cell-based. The settings on record: HepG2, 48 h.
Series [7] in a line: Antiproliferative activity against human HEK293T cells incubated for 48 hrs by MTT assay. The format is cell-based, HEK-293T.
Series [8] relates to K562. Put plainly: Antiproliferative activity against drug resistant human K562 cells incubated for 48 hrs by MTT assay. The series is classed as functional, cell-based. The settings on record: K562, 48 h.
A short description of series [9]: Inhibition of tubulin polymerization (unknown origin) measured every 2 mins for 60 mins by spectrophotometric method. More on the design: species or system Homo sapiens.
A further series deals with HCT-116. Put plainly: cells. The following applies: Homo sapiens, HCT-116, 48 h.
In a further series the test system is MDA-MB-231. The series is described as follows: cells. The following applies: Homo sapiens, MDA-MB-231, 48 h.
The species named for series [10] is Homo sapiens. Put plainly: Inhibition of [3H]colchicine binding to tubulin (unknown origin) at 2 uM incubated for 2 hrs by scintillation counting method relative to control.
Series [11] concerns HT-29. Put plainly: Cell cycle arrest in human HT29 cells assessed as cell accumulation at S phase at […] incubated for 24 hrs by propidium iodide staining based flow cytometry (reference value: 17.15 %). The settings on record: dose 0.25 µM. The series is classed as functional.
The subject of series [12] is HT-29. Put plainly: Induction of apoptosis in human HT-29 cells assessed as late apoptotic cells at 0.5 uM measured after 24 hrs by Annexin V-FITC/propidium iodide staining based flow cytometry (reference value: 0.5 %). The series is classed as functional.
For series [13], the system named is HT-29. Put plainly: Induction of apoptosis in human HT-29 cells assessed as late apoptotic cells at 1 uM measured after 24 hrs by Annexin V-FITC/propidium iodide staining based flow cytometry (reference value: 0.5 %). The series is classed as functional.
The subject of series [14] is HT-29. Put plainly: Cell cycle arrest in human HT29 cells assessed as cell accumulation at G1 phase at […] incubated for 24 hrs by propidium iodide staining based flow cytometry (reference value: 70.33 %). The series is classed as functional. The settings on record: dose 0.25 µM.
Series [15] has as its system HT-29. Put plainly: Induction of apoptosis in human HT-29 cells assessed as viable cells at 1 uM measured after 24 hrs by Annexin V-FITC/propidium iodide staining based flow cytometry (reference value: 97.7 %). The format is functional. The settings on record: read-out: Activity.
In series [16] the test system is HT-29. Put plainly: Cell cycle arrest in human HT29 cells assessed as cell accumulation at G2 phase at 0.5 uM incubated for 24 hrs by propidium iodide staining based flow cytometry (reference value: 12.53 %). The format is functional.
Series [17] concerns HT-29. The series is described as follows: Induction of apoptosis in human HT-29 cells assessed as early apoptotic cells at 0.5 uM measured after 24 hrs by Annexin V-FITC/propidium iodide staining based flow cytometry (reference value: 1.1 %). The format is functional.
Series [18] concerns HT-29. Put plainly: Cell cycle arrest in human HT29 cells assessed as cell accumulation at S phase at 0.5 uM incubated for 24 hrs by propidium iodide staining based flow cytometry (reference value: 17.15 %). The series is classed as functional.
Series [19] relates to HT-29. Put plainly: Induction of apoptosis in human HT-29 cells assessed as necrotic cells at 1 uM measured after 24 hrs by Annexin V-FITC/propidium iodide staining based flow cytometry (reference value: 0.7 %). The format is functional.
Series [20] has as its system HT-29. Put plainly: Induction of apoptosis in human HT-29 cells assessed as necrotic cells at 0.5 uM measured after 24 hrs by Annexin V-FITC/propidium iodide staining based flow cytometry (reference value: 0.7 %). The series is classed as functional.
Series [21] relates to HT-29. Put plainly: Induction of apoptosis in human HT-29 cells assessed as viable cells at […] measured after 24 hrs by Annexin V-FITC/propidium iodide staining based flow cytometry (reference value: 97.7 %). The series is classed as functional. The following applies: dose 0.25 µM, read-out: Activity.
In series [22] the test system is HT-29. Put plainly: Induction of apoptosis in human HT-29 cells assessed as viable cells at 0.5 uM measured after 24 hrs by Annexin V-FITC/propidium iodide staining based flow cytometry (reference value: 97.7 %). The series is classed as functional. The settings on record: read-out: Activity.
For series [23], the system named is HT-29. Put plainly: Induction of apoptosis in human HT-29 cells assessed as necrotic cells at […] measured after 24 hrs by Annexin V-FITC/propidium iodide staining based flow cytometry (reference value: 0.7 %). The series is classed as functional. The following applies: dose 0.25 µM.
Series [24] relates to HT-29. The series is described as follows: Cell cycle arrest in human HT29 cells assessed as cell accumulation at G2 phase at […] incubated for 24 hrs by propidium iodide staining based flow cytometry (reference value: 12.53 %). The format is functional. The settings on record: dose 0.25 µM.
The test system of series [25] is HT-29. Put plainly: Cell cycle arrest in human HT29 cells assessed as cell accumulation at G1 phase at 1 uM incubated for 24 hrs by propidium iodide staining based flow cytometry (reference value: 70.33 %). The format is functional.
The test system of series [26] is HT-29. The series is described as follows: Induction of apoptosis in human HT-29 cells assessed as early apoptotic cells at 1 uM measured after 24 hrs by Annexin V-FITC/propidium iodide staining based flow cytometry (reference value: 1.1 %). The series is classed as functional.
In series [27] the test system is HT-29. The series is described as follows: Induction of apoptosis in human HT-29 cells assessed as early apoptotic cells at […] measured after 24 hrs by Annexin V-FITC/propidium iodide staining based flow cytometry (reference value: 1.1 %). The series is classed as functional. The settings on record: dose 0.25 µM.
Series [28] relates to HT-29. Put plainly: Cell cycle arrest in human HT29 cells assessed as cell accumulation at G1 phase at 0.5 uM incubated for 24 hrs by propidium iodide staining based flow cytometry (reference value: 70.33 %). The series is classed as functional.
Series [29] concerns HT-29. Put plainly: Induction of apoptosis in human HT-29 cells assessed as late apoptotic cells at […] measured after 24 hrs by Annexin V-FITC/propidium iodide staining based flow cytometry (reference value: 0.5 %). The settings on record: dose 0.25 µM. The format is functional.
Series [30] deals with HT-29. Put plainly: Cell cycle arrest in human HT29 cells assessed as cell accumulation at S phase at 1 uM incubated for 24 hrs by propidium iodide staining based flow cytometry (reference value: 17.15 %). The format is functional.
Series [31] relates to HT-29. The series is described as follows: Cell cycle arrest in human HT29 cells assessed as cell accumulation at G2 phase at 1 uM incubated for 24 hrs by propidium iodide staining based flow cytometry (reference value: 12.53 %). The series is classed as functional.

Description for HCT-116: Antiproliferative activity against human HCT116 cells incubated for 48 hrs by MTT assay

For the molecule `COc1ccc(/C=C\c2cc(OC)c(OC)c(OC)c2)cc1O` [COMBRETASTATIN A4], the IC50 in the series with MCF7 [1] amounted to 0.49 µM; with HT-29 [3] it was 0.31 µM; with MCF7 [5] it was 0.25 µM; in the series with K562 [6] it was 0.61 µM; in the series with A549, 0.23 µM; with HepG2 it was 0.27 µM. Further, the IC50 amounted to 6.15 µM with K562 [8], 1.12 µM in series [9], 0.11 µM in the series with HCT-116 and 0.09 µM in the series with MDA-MB-231. The inhibition was determined as 93% in the series listed under Homo sapiens [2] and 81.5% in the series filed under Homo sapiens [10]. Moreover, the CC50 at 48 h in series [4] turned out to be 0.36 µM; in series [7], 1.44 µM.

For the molecule `COc1cccc2c1C(=O)c1c(O)c3c(c(O)c1C2=O)C[C@@](O)(C(=O)CO)C[C@@H]3O[C@H]1C[C@H](N)[C@H](O)[C@H](C)O1` [DOXORUBICIN], the IC50 came to 0.21 µM in the series with K562 [6] and 16.3 µM in the series with K562 [8].

With `CC(C)=CC[C@@H](O)C1=CC(=O)c2c(O)ccc(O)c2C1=O` [SHIKONIN], the IC50 with MCF7 [1] was determined as 23.4 µM; in the series on HT-29 [3], 2.8 µM; in the series on MCF7 [5] it was 5.4 µM; in the series on K562 [6], 20.3 µM; in the series with A549, 10.2 µM; in the series with HepG2 it was 2.92 µM. Moreover, the values for the IC50 in the series on K562 [8], in the series with HCT-116 and in the series on MDA-MB-231 were 121 µM, 2.47 µM and 2.77 µM, respectively. In addition, the Activity with HT-29 [11] is recorded as 28.1%; in the series with HT-29 [12], 0.4%; with HT-29 [13] it was 3.2%; with HT-29 [14], 52.4%; in the series on HT-29 [16], 22.9%; with HT-29 [17], 11.9%. The Activity stood at 27.08% in the series on HT-29 [18]; 0.6% in the series on HT-29 [19]; 0.7% with HT-29 [20]; 1.2% with HT-29 [23]; 19.5% in the series on HT-29 [24]; 32.11% in the series with HT-29 [25]. The Activity with HT-29 [26] is reported as 19.5%; in the series on HT-29 [27], 7.1%; with HT-29 [28] it was 50.02%; in the series with HT-29 [29] it was 0.7%; with HT-29 [30] it was 43.57%; in the series on HT-29 [31], 24.51%. In addition, the half-maximal cytotoxic concentration (CC50) at 48 h was determined as 11.8 µM in [4] and 7 µM in series [7]. For the same molecule, the viability at 1 µM with HT-29 [15] was 76.7%. For the same molecule, in the series on HT-29 [21], the viability at […] is 91%. For the same molecule, in the series on HT-29 [22], the viability at 0.5 µM was determined as 87%.
